# According to article PMC5548886 (Cancer Medicine, 2017):
# System: locally advanced or metastatic melanoma
# Assay: Antitumor response by RECIST 1.0
# Assay type: in vivo, human
# Description: Medical history and demographics were collected at screening. The safety of study medication was evaluated on the basis of rate, type, severity graded in accordance with NCI CTCAE version 3.0. Safety assessments consisted of collecting all AEs, serious adverse events (SAEs) with their severity and relationship with study drug, and pregnancies. They included the regular monitoring of hematology, blood chemistry and urine performed at the study center/central laboratory and regular assessments of vital signs, physical condition, body weight, performance status, and cardiac data (i.e. electrocardiogram (ECG)/echocardiogram (ECHO)). Abnormalities in clinical laboratory tests that were considered clinically significant by the Investigator were recorded on the AE CRF. Dose‐limiting toxicities (DLTs) were defined for various organ systems and other clinically relevant adverse effects (Table S1). The DLT window was the first cycle while AEs were captured for the entire course of treatment. Evaluation of tumor response was conducted at Baseline, and at the end of every 8 weeks of treatment. Response was assessed using the Response Evaluation Criteria in Solid Tumors (RECIST) 1.0. […] All patients discontinuing from the study for progressive disease were to have their disease progression documented by radiologic evaluation.
# [1] = BRAF unspecified/unknown, DL 6, 2 evaluable
# [2] = BRAF unspecified/unknown, DLs 1 to 4, 1 evaluable
# [3] = BRAF unspecified/unknown, DLs 7 and 7.1, 2 evaluable
# [4] = BRAF wild-type, All patients, 28 evaluable
# [5] = BRAF wild-type, DL 5, 5 evaluable
# [6] = BRAF wild-type, DL 6, 8 evaluable
# [7] = BRAF wild-type, DLs 1 to 4, 8 evaluable
# [8] = BRAF wild-type, DLs 7 and 7.1, 7 evaluable
# [9] = Total, All patients, 66 evaluable
# [10] = Total, DLs 1 to 4, 15 evaluable
# [11] = Total, DLs 7 and 7.1, 18 evaluable
compound,measurement,setting,value
Cn1c(Nc2ccc(C(F)(F)F)cc2)nc2cc(Oc3ccnc(-c4ncc(C(F)(F)F)[nH]4)c3)ccc21 [RAF265],"Progressive disease (PD), best overall response",[1],2 (100) n (%)
same,"Stable disease (SD), best overall response",[1],0 n (%)
same,"Complete response (CR), best overall response",[2],0 n (%)
same,"Partial response (PR), best overall response",[2],0 n (%)
same,"Progressive disease (PD), best overall response",[2],0 n (%)
same,"Stable disease (SD), best overall response",[2],1 (100) n (%)
same,"Complete response (CR), best overall response",[3],0 n (%)
same,"Partial response (PR), best overall response",[3],1 (50) n (%)
same,"Progressive disease (PD), best overall response",[3],1 (50) n (%)
same,"Stable disease (SD), best overall response",[3],0 n (%)
same,"Complete response (CR), best overall response",[4],1 (3.6) n (%)
same,"Progressive disease (PD), best overall response",[4],14 (50) n (%)
same,"Stable disease (SD), best overall response",[4],11 (39.3) n (%)
same,"Complete response (CR), best overall response",[5],0 n (%)
same,"Partial response (PR), best overall response",[5],0 n (%)
same,"Progressive disease (PD), best overall response",[5],2 (40) n (%)
same,"Stable disease (SD), best overall response",[5],3 (60) n (%)
same,"Complete response (CR), best overall response",[6],0 n (%)
same,"Partial response (PR), best overall response",[6],1 (12.5) n (%)
same,"Progressive disease (PD), best overall response",[6],5 (62.5) n (%)
same,"Stable disease (SD), best overall response",[6],2 (25) n (%)
same,"Complete response (CR), best overall response",[7],0 n (%)
same,"Partial response (PR), best overall response",[7],1 (12.5) n (%)
same,"Progressive disease (PD), best overall response",[7],6 (75) n (%)
same,"Stable disease (SD), best overall response",[7],1 (12.5) n (%)
same,"Complete response (CR), best overall response",[8],1 (14.3) n (%)
same,"Partial response (PR), best overall response",[8],0 n (%)
same,"Progressive disease (PD), best overall response",[8],1 (14.3) n (%)
same,"Stable disease (SD), best overall response",[8],5 (71.4) n (%)
same,Best response CR or PR,"DL 5, 13 evaluable",1 (7.7) n (%)
same,"Best response CR, PR or SD","DL 5, 13 evaluable",7 (53.8) n (%)
same,Best response CR or PR,"DL 6, 20 evaluable",2 (10) n (%)
same,"Best response CR, PR or SD","DL 6, 20 evaluable",11 (55) n (%)
same,Best response CR or PR,"DLs 1 to 4, 15 evaluable",3 (20) n (%)
same,"Best response CR, PR or SD","DLs 1 to 4, 15 evaluable",5 (33.3) n (%)
same,Best response CR or PR,"DLs 7 and 7.1, 18 evaluable",2 (11.1) n (%)
same,"Best response CR, PR or SD","DLs 7 and 7.1, 18 evaluable",12 (66.7) n (%)
same,"Complete response (CR), best overall response",[9],1 (1.5) n (%)
same,"Partial response (PR), best overall response",[9],7 (10.6) n (%)
same,"Progressive disease (PD), best overall response",[9],31 (47) n (%)
same,"Stable disease (SD), best overall response",[9],27 (40.9) n (%)
same,"Complete response (CR), best overall response","Total, DL 5, 13 evaluable",0 n (%)
same,"Partial response (PR), best overall response","Total, DL 5, 13 evaluable",1 (7.7) n (%)
same,"Progressive disease (PD), best overall response","Total, DL 5, 13 evaluable",6 (46.1) n (%)
same,"Stable disease (SD), best overall response","Total, DL 5, 13 evaluable",6 (46.1) n (%)
same,"Complete response (CR), best overall response","Total, DL 6, 20 evaluable",0 n (%)
same,"Partial response (PR), best overall response","Total, DL 6, 20 evaluable",2 (10) n (%)
same,"Progressive disease (PD), best overall response","Total, DL 6, 20 evaluable",9 (45) n (%)
same,"Stable disease (SD), best overall response","Total, DL 6, 20 evaluable",9 (45) n (%)
same,"Complete response (CR), best overall response",[10],0 n (%)
same,"Partial response (PR), best overall response",[10],3 (20) n (%)
same,"Progressive disease (PD), best overall response",[10],10 (66.7) n (%)
same,"Stable disease (SD), best overall response",[10],2 (13.3) n (%)
same,"Complete response (CR), best overall response",[11],1 (5.6) n (%)
same,"Partial response (PR), best overall response",[11],1 (5.6) n (%)
same,"Progressive disease (PD), best overall response",[11],6 (33.3) n (%)
same,"Stable disease (SD), best overall response",[11],10 (55.6) n (%)
same,median duration of response,"responders, range 1.4–51.7 months",18.3 months
same,number of PR,unknown BRAF mutation status,one
